The test system of experiment [1] is pAKT (T308) in MCF-7 cells (PI3Kα E545K). The experiment in a line: pAKT (T308) ELISA Assay. It counts as cell-based. Conditions: Homo sapiens, MCF7; IGF1 stimulation; read-out: pAKT (T308) IC50 MCF-7 PI3Kα E545K IGF1. How it is done:
MCF-7 cells (ATCC) cells were seeded at 24000 cells per well in 96-well plates (Corning, 3904) in DMEM (Cellgro) containing 10% FBS (Cellgro), 1% NEAA (Cellgro) and 1% penicillin-streptomycin (Cellgro). Cells were incubated at 37° C., 5% CO2 for 48 h, and the growth medium was replaced with serum-free DMEM or in medium containing 0.4% BSA. Serial dilutions of the test Compound in 0.3% DMSO (vehicle) were added to the cells and incubated for 3 h. At the end of the incubation period, cells were stimulated for 10 minutes by the addition of L-IGF (Sigma, I-1271) at a final concentration of 100 ng/ml. Afterwards, media was discarded from cell plates and 110 μl/well of cold lysis buffer (see table below) were added. Cell plates were incubated on ice and then put on shaker in 4° C. cold room for 1 h. Two capture plates (Thermo Scientific, Reacti-bind plate, 15042) were prepared for each cell plate by pre-coating with capture Akt antibody from the two sandwich ELISA antibody pairs used (Cell Signaling Technology 7142 and 7144). The Akt capture antibodies were diluted 1:100 in PBS and 100 μl of diluted capture antibody was added per well. Capture plates were incubated at 4 C overnight. Prior to use, capture plates were washed 3 times in TBS containing 0.1% Tween20 (Bio-Rad, 170-6351) (TBST) and blocked in blocking buffer (Thermo Scientific, Starting Block T20, 37543) for 1-2 h at room temperature. After 1 h of cell lysis, 85 μl of cell lysate/well was transferred to the capture plate for detection of pAkt(T308). 15 μl of cell lysate was transferred from same well to the second capture plate for detection of total Akt1. After incubation overnight at 4° C., plates were washed 3 times with 200 μL TBST. Primary antibodies, diluted 1:100 in blocking buffer, were added to the corresponding capture plates for pAkt(T308) (Cell Signaling Technology, 7144) and total Akt1 (Cell Signaling Technology, 7142) detection and incubated at room temperature for 1 h. Plates were washed 3 times with 200 μL of TBST. Goat anti-mouse secondary antibody (Cell Signaling Technology, 7076) conjugated to HRP was diluted 1:1000 in blocking buffer and 100 μl were added to each well and incubated for 30 minutes at room temperature. Plates were then washed 3 times with 200 μL of TBST. 100 μL of SuperSignal ELISA Femto stable peroxidase solution (Thermo Scientific, 37075) was added to each well. After 1 minute incubation, chemiluminescence was read on a Wallac Victor2 1420 multilabel counter. IC50 values were determined based on the ratio of pAkt(T308) to total Akt1 signal for Compound treated wells, normalized to the DMSO-treated control wells.
In another embodiment, the pAKT ELISA Assay was performed by seeding cells onto 96-well plates (Corning, 3904) in their respective growth media at the densities listed in Table 5. Cells were incubated at 37° C., 5% CO2 for 48 h (except MDA-MB-453 cells which were cultured in the absence of CO2). Compounds were serially diluted in DMSO and subsequently diluted in serum-free DMEM. Test compounds were added to cells in serum-free DMEM at a final concentration of 0.3% DMSO and incubated for 3 h. Cells were lysed with 130 μL of ice-cold RIPA lysis buffer (50 mM Tris-HCl, pH 7.5; 0.5% sodium deoxycholic acid; 1% Triton X-100; 0.1% SDS; 150 mM NaCl) with protease and phosphatase inhibitors (1 mM EDTA, 1 mM NaF, 20 mM β-glycerophosphate, 1 mM Na-orthovanadate, Complete-Mini EDTA-free, Roche, 11836170001, and Phosphatase Inhibitor Cocktail I, Sigma, P2850), directly in 96-well plates. Cells were lysed on ice for 60-120 min at 4° C. The supernatants were added directly to capture ELISA plates previously pre-coated with rabbit anti-AKT capture antibody. ELISA assays for pAKT(T308) and total AKT were performed with the pAKT(T308) ELISA kit (Cell Signaling Technology, 7144) and AKT1 ELISA kit (Cell Signaling Technology, 7142). For the pAKT(T308) ELISA, 85 μL of cell lysate was added to each well. […]
For orientation: In an ELISA, binding on a coated surface is turned into a signal by an enzyme label.

Experiment [2] has as its system PTEN-negative tumors. To be noted: specific inhibition of PI3Kβ; cited from earlier work.
For experiment [3], the system named is PTEN-negative tumors. Conditions: specific inhibition of PI3Kβ; cited from earlier work. This is another data set of the same source.

Turning to `Cc1cc(C(C)Nc2ccccc2)c2nc(N3CCOCC3)cc(=O)n2c1` (stereo not drawn) [TGX-221, 7-methyl-2-(4-morpholinyl)-9-[1-(phenylamino)ethyl]-4H-pyrido[1,2-a]pyrimidin-4-one], the IC50 – broadly, the concentration that inhibits the measured activity by half – in experiment [1] is 1760 nM. Besides, in the experiment on PTEN-negative tumors [2], the “basal AKT phosphorylation” value is “blocks”. For the same compound, in the experiment on PTEN-negative tumors [3], the cell growth result is “blocks”.

Source of the values: US20140080810A1 (Exelixis, Inc., priority 2010, published 2014).
